# Data from patent US11844801B2, “Oral compositions of MK2 pathway inhibitor for treatment of immune conditions” (priority 2020, dated 2023).
# Legend:
# IL-6 = test: LPS stimulated IL-6 in differentiated U937 cells (hPBMC), ELISA; format: cell-based; settings: Homo sapiens, U-937; LPS 0.1 μg/mL, 4 hours
# Procedure: (§1) Therefore, inhibition of the p38 MAP Kinase pathway will lower the inflammatory response by decreasing biosynthesis of pro-inflammatory cytokines. […] The U937 human pre-monocytic cell line was obtained from the American Type Culture Collection (Rockville, MD). These cells were differentiated to a monocytic/macrophage phenotype as described by Burnette (Burnette et al, (2009). […] Differentiated U937 cells (human peripheral blood mononuclear cells (hPBMC)) were seeded into 96-well tissue culture plates (200,000 cells/well) in complete media. […] Culture media was then collected for determination of TNFα, IL-6 or IL-10 levels by ELISA. Cytokine concentrations were extrapolated from recombinant protein standard curves using a four-parameter logistic model and solving for IC50 after iterating to the best least-squares fit.
# TNFα = test: LPS stimulated TNFα in differentiated U937 cells (hPBMC), ELISA; format: cell-based; settings: Homo sapiens, U-937; LPS 0.1 μg/mL, 4 hours
# Procedure: as §1
# IL-1β = test: LPS stimulated IL-1β in differentiated U937 cells (hPBMC), ELISA; format: cell-based; settings: Homo sapiens, U-937; LPS 0.1 μg/mL, 4 hours
# [1] = Crystal form screen of Compound (P)-I; format: physicochemical; settings: for Crystal form obtained, EV: evaporation; for Crystal form obtained, RC: rapid cooling 40 to −20° C.; for Crystal form obtained, TC: temperature-cycled slurry 5-40° C.
# Procedure: Water-containing solvents with a variety of water activities (aw)^1 were also included to probe for the formation of hydrates. Temperatures ranging between 40° C. to −20° C.
# The screening studies were comprised of the following crystallization modes: • Temperature-cycled ripening of API slurries between 5-40° C. for four days (TC) • Rapid cooling clarified saturated solutions from 40 to −20° C. and holding at −20° C. for three days (RC) • Slow evaporation of clarified solutions at RT over 14 days.
# [2] = MTX 7.5 mg single oral dose alone, fasted
# [3] = 2-Methoxyethanol:Isopropyl ether (20:80)
# [4] = 2-propanol:Water (90:10), water activity 0.65
# [5] = 2-propanol:Water (95:5), water activity 0.55
# [6] = Acetone:Water (20:80), water activity 0.96
# [7] = Acetone:Water (80:20), water activity 0.77
# [8] = Acetonitrile:Water (90:10), water activity 0.76
# [9] = Methanol:Water (90:10), water activity 0.33
# [10] = Methanol:Water (95:5), water activity 0.20
# [11] = Tetrahydrofuran::Water (20:80), water activity 0.82
smiles,measurement,setting,value
"Cc1cnc(-c2ccnc(C(C)(C)O)n2)cc1-n1c(C)cc(OCc2ncc(F)cc2F)c(Cl)c1=O (atropisomer, axis not shown; (M)) [(M)-I, (M)-3-chloro-4-((3,5-difluoropyridin-2-yl)methoxy)-2′-(2-(2-hydroxypropan-2-yl)pyrimidin-4-yl)-5′,6-dimethyl-2H-[1,4′-bipyridin]-2-one]",IC50,IL-6,> 10000 µM
same,IC50,TNFα,> 10000 µM
same,IC50,IL-1β,> 10000 µM
"Cc1cnc(-c2ccnc(C(C)(C)O)n2)cc1-n1c(C)cc(OCc2ncc(F)cc2F)c(Cl)c1=O (single isomer, unassigned) [(P)-I, (P)-3-chloro-4-((3,5-difluoropyridin-2-yl)methoxy)-2′-(2-(2-hydroxypropan-2-yl)pyrimidin-4-yl)-5′,6-dimethyl-2H-[1,4′-bipyridin]-2-one]",IC50,IL-6,0.145 µM
same,IC50,TNFα,0.004 µM
same,"Crystal form obtained, EV","[1]; 1,4-Dioxane",Form A
same,"Crystal form obtained, EV","[1]; 1,4-Dioxane:Water (90:10), water activity 0.70",Form A
same,"Crystal form obtained, EV",[1]; 1-Propanol,Form A
same,"Crystal form obtained, EV",[1]; 2-Butanone,Form A
same,"Crystal form obtained, EV",[1]; [3],Form A
same,"Crystal form obtained, EV",[1]; 2-Propanol,Form A
same,"Crystal form obtained, EV",[1]; [4],Form A
same,"Crystal form obtained, EV",[1]; [5],Form A
same,"Crystal form obtained, EV",[1]; 4-Methyl-2-pentanone,Form A
same,"Crystal form obtained, EV",[1]; Acetone,Form A
same,"Crystal form obtained, EV",[1]; [6],Form A
same,"Crystal form obtained, EV",[1]; [7],Form A
same,"Crystal form obtained, EV","[1]; Acetone:Water (90:10), water activity 0.70",Form A
same,"Crystal form obtained, EV",[1]; Acetonitrile,Form A
same,"Crystal form obtained, EV",[1]; [8],Form A
same,"Crystal form obtained, EV",[1]; DMSO:t-butyl methyl ether (20:80),Form A
same,"Crystal form obtained, EV",[1]; Dichloromethane,Form A
same,"Crystal form obtained, EV",[1]; Dimethyl carbonate,Form A
same,"Crystal form obtained, EV",[1]; Ethanol,Form A
same,"Crystal form obtained, EV",[1]; Ethyl acetate,Form A
same,"Crystal form obtained, EV",[1]; Isopropyl acetate,Form A
same,"Crystal form obtained, EV",[1]; Methanol,Form A
same,"Crystal form obtained, EV",[1]; [9],Form A
same,"Crystal form obtained, EV",[1]; [10],Form A
same,"Crystal form obtained, EV",[1]; Nitromethane,Form A
same,"Crystal form obtained, EV",[1]; Tetrahydrofuran,Form A
same,"Crystal form obtained, EV",[1]; [11],Form A
same,"Crystal form obtained, EV","[1]; Tetrahydrofuran:Water (90:10), water activity 0.83",Form A
same,"Crystal form obtained, EV",[1]; Toluene,Form A
same,"Crystal form obtained, RC",[1]; [4],Form A
same,"Crystal form obtained, RC",[1]; [7],Form A
same,"Crystal form obtained, RC",[1]; Acetonitrile,Form A
same,"Crystal form obtained, RC",[1]; [9],Form A
same,"Crystal form obtained, RC",[1]; Nitromethane,Form A
same,"Crystal form obtained, TC",[1]; 1-Butanol,Form A
same,"Crystal form obtained, TC",[1]; 1-Methoxy-2-propanol:Isopropyl ether (20:80),Form A
same,"Crystal form obtained, TC",[1]; [3],Form A
same,"Crystal form obtained, TC",[1]; 2-Methoxyethyl ether:Heptane (20:80),Form A
same,"Crystal form obtained, TC",[1]; 2-Propanol,Form A
same,"Crystal form obtained, TC",[1]; [5],Form A
same,"Crystal form obtained, TC",[1]; 4-Methyl-2-pentanone,Form A
same,"Crystal form obtained, TC",[1]; 4-Methyl-2-pentanone:heptane (20:80),Form A
same,"Crystal form obtained, TC",[1]; [6],Form A
same,"Crystal form obtained, TC",[1]; Acetonitrile,Form A
same,"Crystal form obtained, TC",[1]; [8],Form A
same,"Crystal form obtained, TC","[1]; Acetonitrile:Water (95:5), water activity 0.94",Form A
same,"Crystal form obtained, TC",[1]; Acetonitrile:isopropyl ethyl ether (20:80),Form A
same,"Crystal form obtained, TC",[1]; Chlorobenzene:Cyclohexane (20:80),Form A
same,"Crystal form obtained, TC",[1]; Cyclohexane,Form A
same,"Crystal form obtained, TC",[1]; Dimethyl carbonate,Form A
same,"Crystal form obtained, TC","[1]; Ethanol:Water (20:80), water activity 0.93",Form A
same,"Crystal form obtained, TC",[1]; Ethyl acetate:cyclohexane (20:80),Form A
same,"Crystal form obtained, TC",[1]; Heptane,Form A
same,"Crystal form obtained, TC",[1]; Isopropyl acetate,Form A
same,"Crystal form obtained, TC",[1]; Isopropyl ether,Form A
same,"Crystal form obtained, TC",[1]; [9],Form A
same,"Crystal form obtained, TC",[1]; [10],Form A
same,"Crystal form obtained, TC",[1]; Methyl acetate:Heptane (20:80),Form A
same,"Crystal form obtained, TC","[1]; N,N-Dimethylformamide:Water (20:80), water activity 0.95",Form A
same,"Crystal form obtained, TC",[1]; Nitromethane,Form A
same,"Crystal form obtained, TC",[1]; [11],Form A
same,"Crystal form obtained, TC",[1]; Toluene,Form A
same,"Crystal form obtained, TC",[1]; Trifluoroethanol:Isopropyl ether (20:80),Form A
same,"Crystal form obtained, TC","[1]; Water, water activity 1.00",Form A
same,"Crystal form obtained, TC",[1]; t-Butyl methyl ether,Form A
same,IC50,IL-1β,0.012 µM
"CN(Cc1cnc2nc(N)nc(N)c2n1)c1ccc(C(=O)N[C@@H](CCC(=O)O)C(=O)O)cc1 [MTX, Methotrexate]",AUC0-∞,[2],562.2 (102.2) ng · h/mL
same,Cmax,[2],163.3 (35.6) ng/mL
same,"Tmax, median (min, max)",[2],"1.0 (0.5, 2.5) h"
same,t1/2,[2],3.1 (0.7) h
